What was measured:
transglycosylases = assay: modified membrane assay of radiolabeled Lipid II polymerization; format: biochemical; settings: increasing concentrations of ramoplanin; FIG. 9
From the text: Ramoplanin (FIG. 8) is a cyclic glycolipodepsipeptide antibiotic that kills gram positive bacteria by inhibiting cell wall biosynthesis. Ramoplanin blocks the conversion of Lipid I to Lipid II, a reaction that is catalyzed by the intracellular GlcNAc transferase. MurG. It is proposed that ramoplanin inhibits MurG by complexing Lipid I, which prevents it from being utilized as a substrate. Unexpectedly ramoplanin is shown by this inventor to inhibit the polymerization of Lipid II; therefore another mechanism is discovered by which ramoplanin can kill bacterial cells through inhibition of the transglycosylation step of peptidoglycan synthesis. Using a synthetic analogue of Lipid II, the evidence is presented that enzyme inhibition by ramoplanin involves substrate binding. Unexpectedly, the ramoplanin complexes are found to self-associate to form observable fibrils. The mechanism of action of ramoplanin has been investigated in the past in permeabilized bacterial cells and membrane preparations by following the incorporation of radiolabel from a precursor into various intermediates along the pathway to peptidoglycan. […] The effect of ramoplanin on Lipid II polymerization is evaluated by monitoring the amount of radioactive peptidoglycan formed in the presence of increasing concentrations of ramoplanin. […]

[1] = NMR and CD titration of ramoplanin with compound 2; format: binding; settings: NMR
From the text: The ability of ramoplanin to interact with 2 is investigated by NMR (FIG. 10). Unexpectedly, titration of ramoplanin with compound 2 caused the ramoplanin signals to disappear. Resonances for free 2 began to appear at a 1:1 ramoplanin:2 ratio. The disappearance of the ramoplanin resonances connotes a change in relaxation properties consistent with the formation of a high molecular weight species. A striking increase in the viscosity of the ramoplanin samples is evident upon the addition of compound 2. In addition, electron micrographs of the ramoplanin complexes show long fibrils (not shown). Thus, ramoplanin undergoes a ligand-induced polymerization process in the presence of 2. Ligand-induced polymerization of ramoplanin complexes implies a conformational change in ramoplanin. Therefore, one would expect a significant change in the far UV CD spectrum of ramoplanin upon adding 2. In fact, the CD spectrum for ramoplanin changes dramatically upon titration with 2 (FIG. 11). The appearance of a minimum at ˜210 nm is consistent with a model in which assembly into fibrils is mediated by hydrogen bonds between amides in the ramoplanin complexes, and is all likelihood related to the unusual pattern of D and L amino acids in the molecule. […]

[2] = test system: transglycosylase present in bacterial membranes; assay: in vitro polymerization of biotinylated-[14C]-Lipid II by bacterial membrane protein, ascending chromatography; format: biochemical; settings: 0.06 μg/ml Moenomycin, FIG. 7
Protocol: FIG. 7 discloses in vitro polymerization of biotinylated-[^14C]-Lipid II accomplished by incubation with bacterial membrane protein, and product is detected by ascending chromatography in isobutyric acid:1M NH4OH (5:3).
In FIG. 7, biotinylated Lipid II serves as a substrate for transglycosylase present in bacterial membranes. Control: incubation of bacterial membranes with biotinylated Lipid II, which is also labeled with [^14C] […] It is thus clear that any other bacterial cell wall inhibitor can be equally screened.

Substance: Ramoplanin
- effect on Lipid II polymerization (radioactive peptidoglycan formed) (transglycosylases): blocks the polymerization of Lipid II
- binding to Lipid II analogue [1]: binds to a synthetic analogue of Lipid II

Substance: moenomycin
- formation of peptidoglycan from biotinylated [14C]-Lipid II [2]: inhibits formation of peptidoglycan

Source: patent US6911318B2, “Bacterial transglycosylases: assays for monitoring the activity using Lipid II substrate analogs and methods for discovering new antibiotics” (The Trustees of Princeton University, priority 1999, dated 2005)
